Results as given in PMC11477000, “Enantioselective Binding of Proton Pump Inhibitors to Alpha1-Acid Glycoprotein and Human Serum Albumin—A Chromatographic, Spectroscopic, and In Silico Study” (International Journal of Molecular Sciences, 2024).

Key:
[1] = tested on: α1-acid glycoprotein (AGP); assay: van 't Hoff thermodynamic analysis on AGP column; format: binding, human; settings: Δ(ΔH°)/Δ(ΔS°)
Description: The temperature effect was investigated at pH 7 and a 95:5 buffer:IPA eluents ratio, between 10 and 30 °C on both columns. […] The determination of thermodynamic parameters can provide valuable insights into the process of enantiodiscrimination, including its mechanistic aspects. The applied classical van ’t Hoff methodology postulates the existence of solely enantioselective interaction sites on the stationary phase. Nonetheless, it should be emphasized that a more realistic approach would encompass both enantioselective and non-enantioselective interactions. The isoenantioselective temperatures (Tiso) were calculated by dividing Δ(ΔH°) by Δ(ΔS°). At this temperature, enthalpy and entropy compensations negate each other, resulting in the coelution of the two enantiomers and no separation. […]
In the equation, R represents the universal gas constant, T represents the absolute temperature in Kelvin, and k represents the retention factor of the enantiomers. ΔH° stands for the standard enthalpy, while ΔS° represents the standard entropy change of transfer of the solute from the mobile phase to the stationary phase. Φ is the phase ratio of the column. […] Similarly, the difference in the change of standard enthalpy, Δ(ΔH°), and standard entropy, Δ(ΔS°), for the two enantiomers was calculated as follows:(6) lnα=−ΔΔH°/RT+ΔΔS°/R

[2] = target: T1, HSA (Homo sapiens, UniProt P02768); settings: ref [42]; cited from earlier work
T1 construct: purchased Sigma-Aldrich
T1 sequence (P02768 25-609): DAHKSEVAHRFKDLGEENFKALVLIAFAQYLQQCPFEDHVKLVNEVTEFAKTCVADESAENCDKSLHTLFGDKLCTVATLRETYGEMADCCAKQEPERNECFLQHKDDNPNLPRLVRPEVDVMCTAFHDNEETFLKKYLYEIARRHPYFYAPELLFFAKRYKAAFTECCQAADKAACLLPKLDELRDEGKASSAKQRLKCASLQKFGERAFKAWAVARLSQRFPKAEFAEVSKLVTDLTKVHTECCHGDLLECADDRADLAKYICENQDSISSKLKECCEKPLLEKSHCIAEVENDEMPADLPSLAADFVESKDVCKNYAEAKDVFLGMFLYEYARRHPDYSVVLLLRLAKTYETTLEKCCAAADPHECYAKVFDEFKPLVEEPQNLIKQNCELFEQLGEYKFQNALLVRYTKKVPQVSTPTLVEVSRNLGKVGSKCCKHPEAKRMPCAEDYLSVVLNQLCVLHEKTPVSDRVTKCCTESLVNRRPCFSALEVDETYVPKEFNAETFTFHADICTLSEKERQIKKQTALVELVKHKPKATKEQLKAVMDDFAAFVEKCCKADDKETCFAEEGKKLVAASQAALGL

Tiso isoenantioselective temperature [1] [°C] | SMILES | logK [2]
−16.3 | Cc1c(OCC(F)(F)F)ccnc1C[S+]([O-])c1nc2ccccc2[nH]1 (centres unmarked) [Lansoprazole, lansoprazole] | 
 | Cc1c(OCC(F)(F)F)ccnc1C[S@@+]([O-])c1nc2ccccc2[nH]1 [R-lansoprazole, dexlansoprazole] | logK = 3.44 Binding to subdomain IIA
